Measured values from patent publication US10196369B2, “Spirocyclic EBI2 modulators” (Sanford Burnham Prebys Medical Discovery Institute, priority 2013, dated 2019).

These molecules were tested against EBI2 (Homo sapiens, UniProt P32249) (assay: Cell-based luminescent assay of EBI2 modulation (7a,25-OHC stimulated)). Details: 7a,25-OHC final assay concentration 80 nM, 60 minute incubation.
Protocol: To assess EBI2 modulation, the compounds described herein were assayed in the following cell-based luminescent assay:
1) Plated 600 cells/well in 4 μL of assay media into columns 1-48 of a 1536-well assay plate, using a liquid dispenser.
2) Centrifuged plates at 1000 rpm for 1 minute and covered with lids.
3) Incubated overnight at 37° C., 100% relative humidity, 5% CO2.
1) Centrifuged compound plates containing compounds described herein at 500 rpm for 1 minute.
2) Added compounds into assay plate col 5-48 to final concentration 4-5 uM. Added matching amount of DMSO to positive and negative control wells in columns 1-4.
3) Dispensed 2 uL/well of assay media to columns 1-2 for the positive control wells.
4) Added 2 uL/well of 400 nM 7a,25-OHC (final assay concentration=80 nM) in assay media to columns 3-48 for the negative control and test compound wells.
5) Centrifuged plates at 1000 rpm for 1 minute and re-lid plates.
6) Incubated plates at 37° C., 100% relative humidity, 5% CO2 for 60 minutes.
7) Following 60 minute incubation, delivered 2.5 uL of Detection Reagent solution to each assay plate (Columns 1-48) using a liquid handler.
8) Centrifuged plates at 2000 rpm for 2 minutes and re-lid plates.
9) Incubated plates for 60 minutes at 25 degrees in the dark.
10) Read plates using the Viewlux, Envision or other suitable plate reader using a luminescence detection.
The experimental values were normalized by the difference between values from neutral and stimulator control wells in each plate. Then normalized data was corrected to remove systematic plate patterns due to artifacts such as dispensing tip issues etc.

EBI2, sequence (P32249 whole entry): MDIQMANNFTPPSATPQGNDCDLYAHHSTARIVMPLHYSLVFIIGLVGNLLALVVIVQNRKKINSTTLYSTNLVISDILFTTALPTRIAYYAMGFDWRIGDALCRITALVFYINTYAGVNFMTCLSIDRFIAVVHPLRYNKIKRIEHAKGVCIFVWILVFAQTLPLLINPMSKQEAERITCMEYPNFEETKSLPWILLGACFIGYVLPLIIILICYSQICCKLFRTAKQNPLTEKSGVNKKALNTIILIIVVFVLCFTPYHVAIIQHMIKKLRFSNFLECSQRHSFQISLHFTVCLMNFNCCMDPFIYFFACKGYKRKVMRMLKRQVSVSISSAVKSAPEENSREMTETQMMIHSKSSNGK

Structure (SMILES)	IC50 [nM]
O=C(C#Cc1ccc(Br)cc1)N1CCC2(CC1)CN(C(=O)c1ccc(Cl)cc1)C2 [Compound C70, 3-(4-bromophenyl)-1-{2-[(4-chlorophenyl)carbonyl]-2,7-diazaspiro[3.5]non-7-yl}prop-2-yn-1-one]	100 to 500
O=C(C#Cc1ccc(Br)cc1)N1CC2(CCN(C(=O)c3ccc(Cl)cc3)CC2)C1 [Compound C64, 3-(4-bromophenyl)-1-{7-[(4-chlorophenyl)carbonyl]-2,7-diazaspiro[3.5]non-2-yl}prop-2-yn-1-one]	100 to 500
O=C(c1ccc(Cl)cc1)N1CCC2(CC1)CN(C(=O)c1cc3ccc(Cl)cc3[nH]1)C2 [Compound C56, 6-chloroindol-2-yl 7-[(4-chlorophenyl)carbonyl]-2,7-diazaspiro[3.5]non-2-yl ketone]	500 to 5000
O=C(c1ccc(-c2nnn[nH]2)cc1)N1CCC2(CC1)CN(C(=O)c1cc3cc(Cl)ccc3[nH]1)C2 [Compound C42, 5-chloroindol-2-yl 7-[(4-(1H-1,2,3,4-tetraazol-5-yl)phenyl)carbonyl]-2,7-diazaspiro[3.5]non-2-yl ketone]	500 to 5000
O=C(C#Cc1ccc(Br)cc1)N1CCC2(CC1)CN(C(=O)c1ccc(F)cc1)C2 [Compound C67, 3-(4-bromophenyl)-1-{2-[(4-fluorophenyl)carbonyl]-2,7-diazaspiro[3.5]non-7-yl}prop-2-yn-1-one]	500 to 5000
Cc1cccc(C(=O)N2CC3(CCN(C(=O)/C=C/c4ccc(Br)cc4)CC3)C2)c1 [Compound C12, (2E)-3-(4-bromophenyl)-1-{2-[(3-methylphenyl)carbonyl]-2,7-diazaspiro[3.5]non-7-yl}prop-2-en-1-one]	< 100
O=C(/C=C/c1ccc(Cl)c(Cl)c1)N1CC2(CCN(C(=O)c3ccc(Cl)cc3)CC2)C1 [Compound C29, (2E)-3-(3,4-dichlorophenyl)-1-{7-[(4-chlorophenyl)carbonyl]-2,7-diazaspiro[3.5]non-2-yl}prop-2-en-1-one]	< 100
O=C(/C=C/c1ccc(Br)cc1)N1CC2(CCN(Cc3ccc(F)c(C(F)(F)F)c3)CC2)C1 [Compound C27, (2E)-3-(4-bromophenyl)-1-(7-{[4-fluoro-3-(trifluoromethyl)phenyl]methyl}-2,7-diazaspiro[3.5]non-2-yl)prop-2-en-1-one]	100 to 500
O=C(c1cc2cc(Br)ccc2[nH]1)N1CC2(CCN(Cc3ccc(F)cc3C(F)(F)F)CC2)C1 [Compound C60, 5-bromoindol-2-yl 7-{[4-fluoro-2-(trifluoromethyl)phenyl]methyl}-2,7-diazaspiro[3.5]non-2-yl ketone]	500 to 5000
O=C(c1ccc(F)cc1)N1CCC2(CC1)CN(C(=O)c1cc3cc(Br)ccc3[nH]1)C2 [Compound C47, 5-bromoindol-2-yl 7-[(4-fluorophenyl)carbonyl]-2,7-diazaspiro[3.5]non-2-yl ketone]	100 to 500
O=C(c1cc2ccc(Br)cc2[nH]1)N1CC2(CCN(C(=O)c3ccc(F)cc3C(F)(F)F)CC2)C1 [Compound C61, 6-bromoindol-2-yl 7-{[4-fluoro-2-(trifluoromethyl)phenyl]carbonyl}-2,7-diazaspiro[3.5]non-2-yl ketone]	100 to 500
O=C(c1ccc(C(F)(F)F)c(F)c1)N1CC2(CCN(C(=O)c3cc4cc(Cl)ccc4[nH]3)CC2)C1 [Compound C13, 5-chloroindol-2-yl 2-{[3-fluoro-4-(trifluoromethyl)phenyl]carbonyl}-2,7-diazaspiro[3.5]non-7-yl ketone]	100 to 500
O=C(C#Cc1ccc(Cl)cc1)N1CCC2(CC1)CN(Cc1ccc(C(F)(F)F)cc1)C2 [Compound C78, 3-(4-chlorophenyl)-1-(2-{[4-(trifluoromethyl)phenyl]methyl}-2,7-diazaspiro[3.5]non-7-yl)prop-2-yn-1-one]	< 100
COc1ccc(C(=O)N2CC3(CCN(C(=O)C#Cc4ccc(Br)cc4)CC3)C2)cc1 [Compound C74, 3-(4-bromophenyl)-1-{2-[(4-methoxyphenyl)carbonyl]-2,7-diazaspiro[3.5]non-7-yl}prop-2-yn-1-one]	< 100

Next, values leading:

IC50 [nM]	Structure (SMILES)
< 100	O=C(c1cc2cc(Cl)ccc2[nH]1)N1CCC2(CC1)CN(Cc1ccc(F)cc1)C2 [Compound C17, 5-chloroindol-2-yl 2-[(4-fluorophenyl)methyl]-2,7-diazaspiro[3.5]non-7-yl ketone]
< 100	COc1ccc(C(=O)N2CCC3(CC2)CN(C(=O)C#Cc2ccc(Cl)cc2)C3)cc1 [Compound C91, 3-(4-chlorophenyl)-1-{7-[(4-methoxyphenyl)carbonyl]-2,7-diazaspiro[3.5]non-2-yl}prop-2-yn-1-one]
< 100	O=C(C#Cc1ccc(Br)cc1)N1CCC2(CC1)CN(Cc1ccc(C(F)(F)F)cc1)C2 [Compound C73, 3-(4-bromophenyl)-1-(2-{[4-(trifluoromethyl)phenyl]methyl}-2,7-diazaspiro[3.5]non-7-yl)prop-2-yn-1-one]
< 100	O=C(C#Cc1ccc(Br)cc1)N1CCC2(CC1)CN(Cc1ccc(F)cc1)C2 [Compound C68, 3-(4-bromophenyl)-1-{2-[(4-fluorophenyl)methyl]-2,7-diazaspiro[3.5]non-7-yl}prop-2-yn-1-one]
< 100	O=C(C#Cc1ccc(Br)cc1)N1CCC2(CC1)CN(C(=O)c1ccc(C(F)(F)F)cc1)C2 [Compound C71, 3-(4-bromophenyl)-1-(2-{[4-(trifluoromethyl)phenyl]carbonyl}-2,7-diazaspiro[3.5]non-7-yl)prop-2-yn-1-one]
< 100	O=C(C#Cc1ccc(Cl)cc1)N1CCC2(CC1)CN(C(=O)c1ccc(Cl)cc1)C2 [Compound C76, 3-(4-chlorophenyl)-1-{2-[(4-chlorophenyl)carbonyl]-2,7-diazaspiro[3.5]non-7-yl}prop-2-yn-1-one]
< 100	O=C(c1ccc(F)cc1)N1CC2(CCN(C(=O)c3cc4cc(Cl)ccc4[nH]3)CC2)C1 [Compound C5, 5-chloroindol-2-yl 2-[(4-fluorophenyl)carbonyl]-2,7-diazaspiro[3.5]non-7-yl ketone]
< 100	O=C(C#Cc1ccc(Cl)cc1)N1CC2(CCN(C(=O)c3ccc(C(F)(F)F)cc3)CC2)C1 [Compound C80, 3-(4-chlorophenyl)-1-(7-{[4-(trifluoromethyl)phenyl]carbonyl}-2,7-diazaspiro[3.5]non-2-yl)prop-2-yn-1-one]
< 100	O=C(C#Cc1ccc(Br)cc1)N1CCC2(CC1)CN(Cc1ccc(Cl)cc1)C2 [Compound C69, 3-(4-bromophenyl)-1-{2-[(4-chlorophenyl)methyl]-2,7-diazaspiro[3.5]non-7-yl}prop-2-yn-1-one]
< 100	O=C(c1cc2cc(Br)ccc2[nH]1)N1CC2(CCN(C(=O)c3ccc(F)cc3C(F)(F)F)CC2)C1 [Compound C48, 5-bromoindol-2-yl 7-{[4-fluoro-2-(trifluoromethyl)phenyl]carbonyl}-2,7-diazaspiro[3.5]non-2-yl ketone]
< 100	O=C(/C=C/c1ccc(Br)cc1)N1CC2(CCN(C(=O)c3cccc(Br)c3)CC2)C1 [Compound C2, (2E)-3-(4-bromophenyl)-1-{7-[(3-bromophenyl)carbonyl]-2,7-diazaspiro[3.5]non-2-yl}prop-2-en-1-one]
< 100	O=C(c1ccc(C(F)(F)F)c(F)c1)N1CCC2(CC1)CN(C(=O)c1cc3cc(Cl)ccc3[nH]1)C2 [Compound C18, 5-chloroindol-2-yl 7-{[3-fluoro-4-(trifluoromethyl)phenyl]carbonyl}-2,7-diazaspiro[3.5]non-2-yl ketone]
